According to ChEMBL document CHEMBL1201862, “PubChem BioAssay data set” (2004):
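Cultured in 96-well plates, cells were exposed to test compound for 48 hours across five concentrations. Abbreviation: GI50, concentration required for 50% inhibition of growth.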 Calls of active or inactive are those of the source. Rule as the data show it: active = GI50 up to about 1.1 µM and inactive = higher.

Columns and labels:
Assay in all cases: growth of human tumour cells (NCI), 48 h
MDA-MB-435 = system: MDA-MB-435
U-251 = system: U-251
M14 = system: M14
HCT-15 = system: HCT-15
MDA-MB-231 = system: MDA-MB-231
SK-MEL-2 = system: SK-MEL-2
OVCAR-8 = system: OVCAR-8
TK-10 = system: TK-10
SK-MEL-28 = system: SK-MEL-28
HOP-62 = system: HOP-62
RPMI-8226 = system: RPMI-8226
MOLT-4 = system: MOLT-4
HL-60 = system: HL-60
IGROV-1 = system: IGROV-1
SN12C = system: SN12C
CCRF-CEM = system: CCRF-CEM
UO-31 = system: UO-31
NCI-H226 = system: NCI-H226
K562 = system: K562
KM12 = system: KM12

| SMILES | GI50 (MDA-MB-435) | GI50 (U-251) | GI50 (M14) | GI50 (HCT-15) | GI50 (MDA-MB-231) | GI50 (SK-MEL-2) | GI50 (OVCAR-8) | GI50 (TK-10) | GI50 (SK-MEL-28) | GI50 (HOP-62) | GI50 (RPMI-8226) | GI50 (MOLT-4) | GI50 (HL-60) | GI50 (IGROV-1) | GI50 (SN12C) | GI50 (CCRF-CEM) | GI50 (UO-31) | GI50 (NCI-H226) | GI50 (K562) | GI50 (KM12) |
| --- | --- | --- | --- | --- | --- | --- | --- | --- | --- | --- | --- | --- | --- | --- | --- | --- | --- | --- | --- | --- |
| Cc1ccccc1/N=C/N(C)C | 42.1 µM (inactive) | 39.4 µM (inactive) | 99.3 µM (inactive) | > 100 µM | 39 µM (inactive) | 15 µM (inactive) | 33.9 µM (inactive) | 54.6 µM (inactive) | 75.3 µM (inactive) | 58.6 µM (inactive) | 13.3 µM (inactive) | 29.9 µM (inactive) | 14.1 µM (inactive) | 37.3 µM (inactive) | 66.5 µM (inactive) | 23.2 µM (inactive) | 74.6 µM (inactive) | 48.4 µM (inactive) | 14.1 µM (inactive) | – |
| COC(=O)C1(NC(=O)C(Cc2ccccc2)N(C(=O)OC(C)(C)C)C(=O)OC(C)(C)C)CCCC1 (stereo not given) | 83.9 µM (inactive) | 49.5 µM (inactive) | > 100 µM (inactive) | 66.4 µM | 80.9 µM (inactive) | > 100 µM (inactive) | 43.9 µM (inactive) | 32.7 µM (inactive) | > 100 µM (inactive) | 77.8 µM (inactive) | 20 µM (inactive) | 31.8 µM (inactive) | 22.1 µM (inactive) | > 100 µM (inactive) | > 100 µM (inactive) | 22.9 µM (inactive) | 64 µM (inactive) | > 100 µM (inactive) | 43 µM (inactive) | – |
| NC(=S)N/N=C1\CCCCC1C(O)(C(F)(F)Cl)C(F)(F)Cl (stereo not given) | > 10 µM (inactive) | > 10 µM (inactive) | > 10 µM (inactive) | > 10 µM | > 10 µM (inactive) | > 10 µM (inactive) | > 10 µM (inactive) | > 10 µM (inactive) | > 10 µM (inactive) | > 10 µM (inactive) | > 10 µM (inactive) | > 10 µM (inactive) | > 10 µM (inactive) | > 10 µM (inactive) | > 10 µM (inactive) | > 10 µM (inactive) | – | > 10 µM (inactive) | > 10 µM (inactive) | > 10 µM (inactive) |
| CCOC(=O)CO/N=C1/C(=C2/C(=O)Nc3ccccc32)Nc2ccccc21 | > 100 µM (inactive) | 6.78 µM (inactive) | > 100 µM (inactive) | 81.7 µM | 7.4 µM (inactive) | 39.6 µM (inactive) | 6.21 µM (inactive) | 86.3 µM (inactive) | > 100 µM (inactive) | 8.3 µM (inactive) | > 100 µM (inactive) | 22 µM (inactive) | > 100 µM (inactive) | 2.58 µM (inactive) | 31.3 µM (inactive) | > 100 µM (inactive) | 86.7 µM (inactive) | – | > 100 µM (inactive) | 0.0955 µM (active) |
| COc1cccc(C2ON=C(c3ccccc3)N2C23CC4CC(CC(C4)C2)C3)c1 (stereo not given) | > 10 µM (inactive) | > 10 µM (inactive) | > 10 µM (inactive) | > 10 µM | > 10 µM (inactive) | > 10 µM (inactive) | > 10 µM (inactive) | > 10 µM (inactive) | > 10 µM (inactive) | > 10 µM (inactive) | 7.24 µM (inactive) | 5.5 µM (inactive) | 5.09 µM (inactive) | > 10 µM (inactive) | > 10 µM (inactive) | > 10 µM (inactive) | – | 4.63 µM (inactive) | 8.41 µM (inactive) | > 10 µM (inactive) |
| CCOC1Oc2ccccc2-c2nc(SC)ncc21 (stereo not given) | > 100 µM (inactive) | > 100 µM (inactive) | > 100 µM (inactive) | 79.3 µM | 62.8 µM (inactive) | > 100 µM (inactive) | > 100 µM (inactive) | 68.4 µM (inactive) | – | – | 70 µM (inactive) | 50.8 µM (inactive) | 45.9 µM (inactive) | 35.2 µM (inactive) | 89.7 µM (inactive) | > 100 µM (inactive) | 51.3 µM (inactive) | > 100 µM (inactive) | – | > 100 µM (inactive) |
| COc1cc(/C=C2/C[C@H]3[C@@H]4CCC5=CC(=O)CC[C@]5(C)[C@H]4CC[C@]3(C)NC2=O)cc(OC)c1OC | 19.5 µM (inactive) | 19.5 µM (inactive) | 27.4 µM (inactive) | 21.5 µM | 19.7 µM (inactive) | 24.8 µM (inactive) | 23.7 µM (inactive) | 16.2 µM (inactive) | 29 µM (inactive) | 27.9 µM (inactive) | 9.64 µM (inactive) | 10.2 µM (inactive) | 13.2 µM (inactive) | 24.7 µM (inactive) | 22.1 µM (inactive) | 20.8 µM (inactive) | 0.9 µM (active) | 28.8 µM (inactive) | – | 26.7 µM (inactive) |
| COC(=O)C1OC(SCCN)C(O)C(O)C1O (stereo not given) | > 100 µM (inactive) | > 100 µM (inactive) | > 100 µM (inactive) | > 100 µM | > 100 µM (inactive) | > 100 µM (inactive) | > 100 µM (inactive) | > 100 µM (inactive) | > 100 µM (inactive) | > 100 µM (inactive) | > 100 µM (inactive) | > 100 µM (inactive) | > 100 µM (inactive) | > 100 µM (inactive) | > 100 µM (inactive) | > 100 µM (inactive) | – | > 100 µM (inactive) | > 100 µM (inactive) | > 100 µM (inactive) |
